Values of other authors in US11670410B1, “Systems and methods to automatically administer a psychoactive substance to an airway of a user based on a detected event or condition” (priority 2022, dated 2023).

How the values were obtained:
[1] = @ 5 min., protocol dose 1.0 mg
[2] = inhaled after vaporization; protocol dose 10 mcg/Kg
[3] = nose-to-brain device, protocol dose 1 mg
[4] = galantamine consumed orally

In the case of `CC[C@H](C)[C@@H]1NC(=O)[C@H](Cc2ccc(O)cc2)NC(=O)[C@@H](N)CSSC[C@@H](C(=O)N2CCC[C@H]2C(=O)N[C@@H](CC(C)C)C(=O)NCC(N)=O)NC(=O)[C@H](CC(N)=O)NC(=O)[C@H](CCC(N)=O)NC1=O` [Oxytocin, oxytocin], the “PK-Intranasal olfactory bulb concentration” value [1] is listed as > 0 @ 5 min.
For `COC(=O)[C@@H]1C[C@H](OC(C)=O)C(=O)[C@H]2[C@@]1(C)CC[C@H]1C(=O)O[C@H](c3ccoc3)C[C@]21C` [Salvinorin A, salvinorin A], the “PK-Inhaled Tmax” value [2] is given as “Tmax = 2 min”.
For `COc1ccc2c3c1O[C@H]1C[C@@H](O)C=C[C@@]31CCN(C)C2` [Galantamine, galantamine], the “PK-Intranasal Tmax” value [3] is listed as 0.5 to 0.75 h and the Tmax [4] is listed as about 1.5 h.
